Assay results: patent US20180296530A1, “METHOD FOR TREATING ATOPIC DERMATITIS” (priority 2015, published 2018)

Experiments:
[1] = test system: Patients aged 1 to 18 years with physician-diagnosed AD and sleep problems; experiment: Clinical trial: sleep evaluated by actigraphy; type: in vivo, human
Procedure: Patients aged 1 to 18 years with physician-diagnosed AD involving at least 5% of the total body surface area were recruited from the pediatric and dermatology outpatient departments of the National Taiwan University Hospital from Aug. 1, 2012, through Jan. 31, 2013. Follow-up was completed on Apr. 13, 2013. Those patients with sleep problems occurring more than 3 days per week during the previous 3 months were eligible. […] They were then randomized to receive oral melatonin, 3 mg/d (General Nutrition Corporation), or placebo (Standard Chem & Pharm Co, Ltd) at bedtime for 4 weeks. After a 2-week washout period, participants crossed to the alternate treatment. Sleep was evaluated by actigraphy (Mini-Mitter Actiwatch; Philips-Respironics). Each participant wore the actigraphic device on the nondominant wrist for 3 consecutive nights starting 3 nights before each treatment period and for the last 3 nights of each treatment period. In a subgroup of patients who offered consent, polysomnography was performed on the night before the first day and on the last night of each treatment period.

[2] = test system: DNCB-induced AD mouse model; experiment: Example 5: dermatitis severity, topical melatonin in DNCB-induced AD mouse model; type: in vivo, Balb/c mice
Procedure: Four- to six-week-old Balb/c mice were maintained under specific pathogen-free conditions. Animals were housed in an air-conditioned animal room (25±1° C.; relative humidity 40±5%) and were fed a laboratory diet and distilled water. Animal care and handling protocols were approved by the Animal Committee of the College of Medicine, Taiwan University, and all procedures were conducted in accordance with the U.S. National Institute of Health guidelines.
The protocol for establishing an AD mouse model in this Example was modified from those described previously. Briefly, referring to FIG. 4, DNCB-induced AD mouse model was prepared by the repeated applications of 20 μL of 1% DNCB in acetone/olive oil (4:1) to the outer and inner surfaces of mouse ears and 100 μL of the same solution to the shaved back skin once on days 1, 2, and 3. Mice of Control group were treated with the identical volumes of vehicle. […]
Macroscopic assessment of the severity of dermatitis was determined by a scoring method as described previously. Briefly, the degree of each sign were scored as 0 (none), 1 (mild), 2 (moderate), and 3 (severe). […] Ear thickness was measured with a thickness gauge (Digimatic Indicator, Mitsutoyo, Tokyo). […]

serum total IgE = experiment: Example 6: serum IgE in DNCB-induced AD mouse model; type: in vivo, Balb/c mice
Procedure: Blood and dorsal skin of each mouse were collected on the last day of the experiment (Day 20) and stored at −80° C. until use. Serum IgE levels were measured using the ImmunoCAP fluorescence enzyme immunoassay (Phadia AB, Sweden) according to the manufacturer's instructions. The dorsal skin mRNA expression of the cytokines IL-4, IL-13, and IL-17 were measured by RT-PCR.
The protocol for establishing an AD mouse model in this Example was modified from those described previously. Briefly, referring to FIG. 12, DNCB-induced AD mouse model was prepared by the repeated applications of 20 μL of 1% DNCB in acetone/olive oil (4:1) to the outer and inner surfaces of mouse ears and 100 μL of the same solution to the shaved back skin once on days 1 and 4. Mice of Control group were treated with the identical volumes of vehicle.
The DNCB-sensitized mice were randomly assigned to one of four groups: DNCB, DNCB+0.1% topical melatonin, DNCB+1% topical melatonin, DNCB+8% topical melatonin. Each group (including Control group) consisted of 3 mice. On days 8 and 11, sensitized mice was challenged by applying 0.2% DNCB to the skin surfaces. For the three groups treated with topical melatonin groups, 0.1 mg of topical melatonin cream was given twice a day from day 1 to day 14. […]
The serum IgE levels were measured on the last day of the experiment (Day 15) in the same manner as those described in Example 5.

[3] = test system: serum total IgE and allergen-specific IgE; experiment: Clinical trial: serum total and allergen-specific IgE (ImmunoCAP); type: in vivo, human
[4] = after oral melatonin 3 mg/d at bedtime for 4 weeks, mean, actigraphy
[5] = after vs before oral melatonin 3 mg/d, 4 weeks, mean
[6] = melatonin phase, before treatment, mean, actigraphy
[7] = melatonin vs placebo, adjusted for age and sex

COc1ccc2[nH]cc(CCNC(C)=O)c2c1 [Melatonin, melatonin]
sleep-onset latency, Wilcoxon signed rank test ([1]; FIG. 2D, almost unchanged in placebo treatment): decreased the sleep-onset latency significantly | patients who believed that their sleep had improved ([1]; after melatonin treatment, 17 of 37 (placebo 13 of 38 [34%])): 46% | Fragmentation index, After ([1]; after oral melatonin 3 mg/d at bedtime for 4 weeks, mean): 13.6 | Mobility in sleep, After [1, 4]: 9.7% | Sleep efficiency, After [1, 4]: 76.7% | Sleep-onset latency, After [1, 4]: 21.6 min | Total sleep time, After [1, 4]: 390.1 min/night | WASO (wake after sleep onset), After [1, 4]: 74.5 min | Wake in sleep interval, After [1, 4]: 15.6% | Fragmentation index, Difference [1, 5]: −2.4 | Mobility in sleep, Difference [1, 5]: −2.0% | Sleep efficiency, Difference [1, 5]: 2.4% | Sleep-onset latency, Difference [1, 5]: -23.4 min | Total sleep time, Difference [1, 5]: 10.0 min/night | WASO (wake after sleep onset), Difference [1, 5]: -9.0 min | Wake in sleep interval, Difference [1, 5]: −2.1% | effect on the other sleep variables measured by actigraphy ([1]; between the melatonin and placebo phases): did not differ significantly | decrease of the sleep-onset latency more than placebo ([1]; linear mixed-effects model, adjusted for age and sex): 21.4 min | sleep-onset latency, first treatment period, after ([1]; melatonin group, first treatment period, after oral 3 mg/d for 4 weeks, actigraphy): 24.4 min | sleep-onset latency, first treatment period, before ([1]; melatonin group, first treatment period, before treatment, actigraphy): 42.8 min | sleep-onset latency, second treatment period, after ([1]; melatonin group, second treatment period, after oral 3 mg/d for 4 weeks, actigraphy): 19.1 min | sleep-onset latency, second treatment period, before ([1]; melatonin group, second treatment period, before treatment, actigraphy): 46.7 min | Mobility in sleep, Before [1, 6]: 11.6% | Sleep efficiency, Before [1, 6]: 74.4% | Sleep-onset latency, Before [1, 6]: 44.9 min | Total sleep time, Before [1, 6]: 380.1 min/night | WASO (wake after sleep onset), Before [1, 6]: 83.6 min | Wake in sleep interval, Before [1, 6]: 17.6% | Fragmentation index, Before ([1]; melatonin phase, before treatment, mean, greater scores indicate more fragmented sleep): 16.0 | effect on sleep efficiency, wake time during sleep, or sleep fragmentation ([1]; melatonin treatment compared to placebo, FIG. 3): no significant effect | Fragmentation index, Difference of Treatment Effect From the Linear Mixed-Effects Model, Mean [1, 7]: −3.2 | Mobility in sleep, Difference of Treatment Effect From the Linear Mixed-Effects Model, Mean [1, 7]: −2.9% | Sleep efficiency, Difference of Treatment Effect From the Linear Mixed-Effects Model, Mean [1, 7]: 2.2% | Sleep-onset latency, Difference of Treatment Effect From the Linear Mixed-Effects Model, Mean [1, 7]: -21.4 min | Total sleep time, Difference of Treatment Effect From the Linear Mixed-Effects Model, Mean [1, 7]: 24.8 min/night | WASO, Difference of Treatment Effect From the Linear Mixed-Effects Model, Mean [1, 7]: -8.2 min | Wake in sleep interval, Difference of Treatment Effect From the Linear Mixed-Effects Model, Mean [1, 7]: −2.3% | shortening of sleep-onset latency, mean ([1]; oral melatonin treatment): 23.4 min | shortening of sleep-onset latency, mean percent ([1]; oral melatonin treatment): 52.1% | gross findings of dermatitis ([2]; DNCB-stimulated mice treated with melatonin, FIG. 5, less skin erythema, less skin excoriation, improved hair growth): dermatitis was improved | Dermatitis clinical score ([2]; after topical melatonin treatment, decreased from 12, total score 0 to 12, Day 20, concentration not given): 3 | serum total IgE levels (serum total IgE; 8% topical melatonin treatment, FIG. 15): lowered the total serum IgE most | serum total IgE levels (serum total IgE; after topical melatonin treatment (0.1%, 1%, 8%), dose-response relationship, FIG. 15, Day 15): reduced | IgE level, After ([3]; after oral melatonin 3 mg/d at bedtime for 4 weeks, mean, serum): 2483.8 kU/L | IgE level, Difference [3, 5]: 108.4 kU/L | IgE level, Before ([3]; melatonin phase, before treatment, mean, serum): 2337.2 kU/L | effect on allergen-specific IgE levels to Derp, Derf, or S aureus enterotoxins A or B ([3]; melatonin vs placebo, P>0.05): no significant difference | effect on total IgE level ([3]; melatonin vs placebo, P>0.05): no significant difference | IgE level, Difference of Treatment Effect From the Linear Mixed-Effects Model, Mean [3, 7]: −113.6 kU/L
